The numbers were not newly measured in US9629875B2, “Clostridium difficile sporicidal compositions” (Microdermis Corporation, priority 2014, dated 2017), which cites them from elsewhere.

This data set deals with Bacillus subtilis. The following applies: 0.1% L-alanine in the absence of sporicidal agents, after 4 hours.

Regarding `C[C@H](N)C(=O)O` [L-alanine], the “colony-forming unit (CFU) relative count” value is recorded as 116%.
